Results published in PMC10713593, “Staphylococcus aureus functional amyloids catalyze degradation of β-lactam antibiotics” (Nature Communications, 2023).
Where no end group is shown, it is not given here.

Key:
[1] = Nitrocefin hydrolysis kinetics (absorbance of degraded nitrocefin at 480 nm; initial rates V0, Michaelis-Menten fit); type: biochemical; parameters: Initial nitrocefin-degradation reaction rate, V0: unit not given here; conditions: for Initial nitrocefin-degradation reaction rate, V0 / nitrocefin degradation yield (turnover): nitrocefin 60 µM; for Initial nitrocefin-degradation reaction rate, V0: Hepes pH 7.4, average of the six runs; for nitrocefin degradation yield (turnover): PSMα assemblies 350 µM, A480, monitored 2 h (Fig. 2a)
Procedure: Nitrocefin, a β-lactam widely used as a surrogate substrate of Penicillin in β-lactamase activity assay, was used as a substrate. NC degradation was monitored for 2 h. Nitrocefin stock solution was dissolved in acetonitrile (20 mM) and then diluted with Hepes buffer (50 mM, pH 7.4) to nitrocefin concentration of 360 µM (further dilutions to lower concentrations were made with the 360 µM NC stock). All nitrocefin samples were kept on ice in cold conditions and any further dilution or mixing was performed in ice-cold conditions to avoid self-hydrolysis background reaction. […] Immediately after mixing the samples, the plate was transferred to 20̊ °C pre-cooled plate reader (Multiskan GO, Thermo Scientific, Waltham, MA) and shaken slowly for 10 s. Then, the absorbance of degraded nitrocefin was measured for 2 h at interval of 20 s at λ = 480 nm. Initial production rates (V0) were calculated by slope of the initial linear range of degraded-nitrocefin production at the first 15 min. The reported results are and average of at least five separate measurements (the exact number of repeats, N, is reported next to the values). Each experiment also included blank samples of nitrocefin substrate diluted with buffer instead of PSMα. […] The initial rate calculations were performed while also subtracting the self-degradation of the substrate, to ensure that this product absorbance is a result of PSMα presence.
The initial rates of degraded-nitrocefin production were calculated from the slopes of the first 15 min of measurement as reported above. The initial rates (V0) were fitted using non-linear regression applied with the solver function in excel, either to Michalis–Menten equation V=Vmax.[S]/(KM+S) Where Vmax. Stands for maximal reaction rate, KM stands for Michalis–Menten constant, [S] stands for the substrate molar concentration. Each initial rate value was presented as average ± SEM. The kinetic parameters were calculated by fitting the data to MM model using non-linear regression, and the confidence intervals for each parameter were calculated accordingly.

PSMα3 fibrils = PSMα3 fibrils (Staphylococcus aureus, UniProt A9JX07); assay: LC-MS degradation of amoxicillin and penicillin G with PSMα3 fibrils or buffer; type: biochemical; parameters: key to Amoxicillin (remaining) / Degraded Amoxicillin (PSMa3) / Degraded Amoxicillin: % relative abundance from extracted ion chromatogram peak areas; conditions: for Amoxicillin (remaining) / Degraded Amoxicillin: buffer only (blank); for Amoxicillin (remaining) / Degraded Amoxicillin / Amoxicillin (PSMa3) (remaining) / Degraded Amoxicillin (PSMa3): LC-MS; for Amoxicillin (remaining) / Amoxicillin (PSMa3) (remaining): 366 peak as share of 366+384 sum; for Degraded Amoxicillin / Degraded Amoxicillin (PSMa3): 384 peak as share of 366+384 sum
Procedure: Amoxicillin or Penicillin solutions were dissolved in Hepes buffer (50 mM, pH 7.4) in concentration of 50 µM. PSMα3 solution in concentration of 1.54 mM was dissolved in DIW and Hepes buffer was added to the final concentration of 50 mM. The antibiotics’ solutions and preincubated PSMα3 solutions were mixed to final PSMα3 […] 180 µL organic solvent to stop the reaction (acetonitrile for Amoxicillin, methanol in the case of Penicillin). The samples were collected and injected sequentially into the LC-MS analysis.
Waters ACQUITY UPLC I-Class PLUS System coupled with high-resolution Thermo Orbitrap Exploris 240 mass-spectrometer were used for analysis of Amoxicillin and Penicillin-G over time. 1 µL of each sample was injected into the reverse-phase Acquity UPLC BEH C18 1.7 µm, 2.1 × 50 mm column (Waters) and run under a gradient program (Table S2 for Amoxicillin, Table S3 for Penicillin-G). The samples were ionized using soft electrospray ionization in positive mode and detected in a full scan mode in range from 60 to 900 m/z with a resolution of 240,000 Full Width at Half Maximum. MS was tuned according to the manufacture recommendations. Relative abundance of the intact/degraded compounds was calculated by peak area of the extracted ion chromatogram: for Amoxicillin 366.1–366.12, and degraded-Amoxicillin 384.1–384.13 m/z, Penicillin-G 335.1–335.12, for degraded-Penicillin-G 353.1–353.12, for (Figs. S13 and S14, respectively).

PSMα3 fibrils, sequence (A9JX07 whole entry, looked up): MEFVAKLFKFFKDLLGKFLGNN

Molecule: CC[C@H](C)[C@H](NC(=O)CNC(=O)[C@@H](N)CCSC)C(=O)N[C@H](C(=O)N[C@@H](C)C(=O)NCC(=O)N[C@H](C(=O)N[C@H](C(=O)N[C@@H](CCCCN)C(=O)N[C@@H](Cc1ccccc1)C(=O)N[C@H](C(=O)N[C@@H](CCCCN)C(=O)NCC(=O)N[C@@H](CC(C)C)C(=O)N[C@H](C(=O)N[C@@H](CCC(=O)O)C(=O)N[C@@H](CCCCN)C(=O)N[C@@H](Cc1ccccc1)C(=O)N[C@H](C(=O)NCC(=O)N[C@@H](CCCCN)C(=O)O)[C@@H](C)O)[C@@H](C)CC)[C@@H](C)CC)[C@@H](C)CC)[C@@H](C)CC)[C@@H](C)CC [PSMα2]
- Initial nitrocefin-degradation reaction rate, V0 ([1]; PSMα 4.01424 uM): 1.158
- Initial nitrocefin-degradation reaction rate, V0 ([1]; PSMα 6.02136 uM): -0.4109
- Initial nitrocefin-degradation reaction rate, V0 ([1]; PSMα 9.03205 uM): 0.9321
- Initial nitrocefin-degradation reaction rate, V0 ([1]; PSMα 13.5481 uM): 0.6055
- Initial nitrocefin-degradation reaction rate, V0 ([1]; PSMα 20.3221 uM): 1.35
- Initial nitrocefin-degradation reaction rate, V0 ([1]; PSMα 30.4832 uM): 1.3793
- Initial nitrocefin-degradation reaction rate, V0 ([1]; PSMα 45.7247 uM): 2.588
- Initial nitrocefin-degradation reaction rate, V0 ([1]; PSMα 68.5871 uM): 11.4228
- Initial nitrocefin-degradation reaction rate, V0 ([1]; PSMα 102.881 uM): 36.0382
- Initial nitrocefin-degradation reaction rate, V0 ([1]; PSMα 154.321 uM): 59.4111
- Initial nitrocefin-degradation reaction rate, V0 ([1]; PSMα 231.481 uM): 94.344
- Initial nitrocefin-degradation reaction rate, V0 ([1]; PSMα 347.222 uM): 117.315
- nitrocefin degradation yield (turnover) ([1]; Hepes 50 mM pH 7.4, 20 °C): ~100%
- ATR-FTIR amide-I peak/maximum: 1650 cm⁻¹

Molecule: MQFVAKLFKFFKNLLGKFLGNN-NH2 [α3-cationic]
- initial rate of nitrocefin degradation reaction (V0) ([1]; peptide 170 µM, initial nitrocefin 107 µM, Hepes 50 mM pH 7.4, 20 °C, first 15 min (Fig. 3f)): around 60 µM/h
- ATR-FTIR amide-I peak/maximum: 1660 cm⁻¹

Molecule: CC[C@H](C)[C@H](NC(=O)[C@H](C)NC(=O)[C@@H](N)CCSC)C(=O)N[C@H](C(=O)NCC(=O)N[C@H](C(=O)N[C@H](C(=O)N[C@H](C(=O)N[C@@H](CCCCN)C(=O)N[C@H](C(=O)N[C@H](C(=O)N[C@@H](CCCCN)C(=O)N[C@@H](C)C(=O)N[C@H](C(=O)N[C@H](C(=O)N[C@@H](CC(=O)O)C(=O)N[C@H](C(=O)N[C@@H](Cc1ccccc1)C(=O)N[C@@H](C)C(=O)N[C@@H](CCCCN)C(=O)O)[C@@H](C)CC)[C@@H](C)CC)[C@@H](C)CC)[C@@H](C)CC)[C@@H](C)CC)[C@@H](C)CC)[C@@H](C)CC)[C@@H](C)O)C(C)C [PSMα4]
- Initial nitrocefin-degradation reaction rate, V0 ([1]; PSMα 4.01424 uM): 0.5451
- Initial nitrocefin-degradation reaction rate, V0 ([1]; PSMα 6.02136 uM): 0.5496
- Initial nitrocefin-degradation reaction rate, V0 ([1]; PSMα 9.03205 uM): -0.2169
- Initial nitrocefin-degradation reaction rate, V0 ([1]; PSMα 13.5481 uM): 1.372
- Initial nitrocefin-degradation reaction rate, V0 ([1]; PSMα 20.3221 uM): 0.8016
- Initial nitrocefin-degradation reaction rate, V0 ([1]; PSMα 30.4832 uM): 1.8
- Initial nitrocefin-degradation reaction rate, V0 ([1]; PSMα 45.7247 uM): 3.313
- Initial nitrocefin-degradation reaction rate, V0 ([1]; PSMα 68.5871 uM): -1.824
- Initial nitrocefin-degradation reaction rate, V0 ([1]; PSMα 102.881 uM): 15.0899
- Initial nitrocefin-degradation reaction rate, V0 ([1]; PSMα 154.321 uM): 17.903
- Initial nitrocefin-degradation reaction rate, V0 ([1]; PSMα 231.481 uM): 15.5904
- Initial nitrocefin-degradation reaction rate, V0 ([1]; PSMα 347.222 uM): 26.4203
- nitrocefin degradation yield (turnover) ([1]; Hepes 50 mM pH 7.4, 20 °C): ~ 15%
- ATR-FTIR amide-I peak/maximum: 1620 cm⁻¹

Molecule: CC1(C)S[C@@H]2[C@H](NC(=O)[C@H](N)c3ccc(O)cc3)C(=O)N2[C@H]1C(=O)O [amoxycillin]
- hydrolysis by PSMα3 fibrils versus spontaneous degradation (PSMα3 fibrils; antibiotic 40 µM, PSMα3 fibrils 308 µM, Hepes 50 mM pH 7.4, LC-MS (Fig. 6)): significantly higher extent compared to the spontaneous degradation
- Amoxicillin (remaining) (PSMα3 fibrils; 0h): 81.4445
- Degraded Amoxicillin (PSMα3 fibrils; 0h): 18.5555
- Amoxicillin (remaining) (PSMα3 fibrils; 4h): 80.1864
- Degraded Amoxicillin (PSMα3 fibrils; 4h): 19.8136
- Amoxicillin (remaining) (PSMα3 fibrils; 8h): 79.6866
- Degraded Amoxicillin (PSMα3 fibrils; 8h): 20.3134
- Amoxicillin (remaining) (PSMα3 fibrils; 12h): 78.9455
- Degraded Amoxicillin (PSMα3 fibrils; 12h): 21.0545
- Amoxicillin (remaining) (PSMα3 fibrils; 24h): 78.1892
- Degraded Amoxicillin (PSMα3 fibrils; 24h): 21.8108
- Amoxicillin (remaining) (PSMα3 fibrils; 60h): 69.9317
- Degraded Amoxicillin (PSMα3 fibrils; 60h): 30.0683
- Amoxicillin (remaining) (PSMα3 fibrils; 72h): 68.3628
- Degraded Amoxicillin (PSMα3 fibrils; 72h): 31.6372
- Amoxicillin (remaining) (PSMα3 fibrils; 80h): 59.5525
- Degraded Amoxicillin (PSMα3 fibrils; 80h): 40.4475
- Amoxicillin (PSMa3) (remaining) (PSMα3 fibrils; with PSMa3, 0h): 79.7112
- Degraded Amoxicillin (PSMa3) (PSMα3 fibrils; with PSMa3, 0h): 20.2888
- Amoxicillin (PSMa3) (remaining) (PSMα3 fibrils; with PSMa3, 4h): 78.2636
- Degraded Amoxicillin (PSMa3) (PSMα3 fibrils; with PSMa3, 4h): 21.7364
- Amoxicillin (PSMa3) (remaining) (PSMα3 fibrils; with PSMa3, 8h): 74.8273
- Degraded Amoxicillin (PSMa3) (PSMα3 fibrils; with PSMa3, 8h): 25.1727
- Amoxicillin (PSMa3) (remaining) (PSMα3 fibrils; with PSMa3, 12h): 70.3173
- Degraded Amoxicillin (PSMa3) (PSMα3 fibrils; with PSMa3, 12h): 29.6827
- Amoxicillin (PSMa3) (remaining) (PSMα3 fibrils; with PSMa3, 24h): 62.2462
- Degraded Amoxicillin (PSMa3) (PSMα3 fibrils; with PSMa3, 24h): 37.7538
- Amoxicillin (PSMa3) (remaining) (PSMα3 fibrils; with PSMa3, 60h): 12.8041
- Degraded Amoxicillin (PSMa3) (PSMα3 fibrils; with PSMa3, 60h): 87.1959
- Amoxicillin (PSMa3) (remaining) (PSMα3 fibrils; with PSMa3, 72h): 5.039
- Degraded Amoxicillin (PSMa3) (PSMα3 fibrils; with PSMa3, 72h): 94.9606
- Amoxicillin (PSMa3) (remaining) (PSMα3 fibrils; with PSMa3, 80h): 3.011
- Degraded Amoxicillin (PSMa3) (PSMα3 fibrils; with PSMa3, 80h): 96.9892
